Measured values published in patent publication US5270339A, “Phenoxybenzene derivative” (Kanagafuchi Kagaku Kogyo Kabushiki Kaisha, priority 1991, dated 1993).
Structures can show the parent of a compound that is named as a salt.

Experiments:
[1] = Acute toxicity test, oral; assay type: in vivo, ddY male mice; details: mouse, in vivo, ddY mice, 2 weeks observation
Experimental: With respect to the compounds 1 to 86 shown in Table 1 as test compounds, the acute toxicity was examined using ddY mice according to the following method.
In each group, six male ddY mice weighing 27 to 30 g were employed. The compounds 1 to 86 suspended in an aqueous solution of 0.5% sodium carboxymethylcellulose were administered orally in a volume of 0.1 ml/10 g body weight. […] The LD50 (mg/kg) values were estimated from the ratio of the number of dead mice to the number of mice used.

[2] = system: experimental amnesia in mice induced by cycloheximide; experiment: Anti-amnesic effect: passive avoidance task (step-through), cycloheximide-induced amnesia; assay type: in vivo, ddY male mice; details: for Step-through latency: mean of group; for responders at 3 mg/kg / responders at 1 mg/kg: Mus musculus, mice with latency > 100 seconds, read-out: Ratio of memory
Experimental: As experimental animals, Wistar male rats and ddY male mice were used for the tests after they were housed for a week under every 12 hours' dark-light cycle at room temperature of 24° to 26° C.
The effect on experimental amnesia in mice induced by cycloheximide was evaluated.
The experiment was carried out using an experimental apparatus of passive avoidance task for mice (made by Ohara-ika-sangyo K. K.) comprising a box divided into the two compartments of dark and light. That is, the dark compartment [a box having a reverse trapezoid cross section (height: 8 cm, base line: 5 cm, oblique line: 9.5 cm) and having the length of 14 cm] was shield from a light with a black plastic case and was floored with stainless grids for giving an electrical shock so that an electricity might be turned on a determined time after interception of a photobeam placed in the dark compartment. The light compartment made of transparent plastic (a box of the same shape as that of the dark compartment having the length of 16 cm, lightened from a location spaced 25 cm above by a 60 W electric lamp) was provided adjacent to the dark compartment. Between the two compartments, there was provided a circular entrance having the diameter of 3 cm with a guillotine door which could be opened and closed. By using the above-mentioned dark-light box, the experiment was carried out according to the following procedure.
A mouse (5 week-old) previously conditioned in the dark-light box was put in the light compartment and the guillotine door was opened. Three seconds after the mouse moved into the dark compartment and interrupted the photobeam, 0.3 mA electrical shock was given to limbs for 3 seconds from the floor grid (aquisition trial). Just after the mouse rushed into the light compartment, the door was shut and the […] in the light compartment was picked out to return to his home cage. After 24 hours, the mouse was placed again in the light compartment and the period from the opening of the guillotine door to the time the mouse completely entered the dark compartment was recorded maximally 300 seconds as a step-through latency (retention trial).
The amnesia was induced by subcutaneous injection of cycloheximide (120 mg/kg) dissolved in saline 10 minutes before the aquisition trial. As a control, the same amount of saline alone was administered. […]
A ratio of number of mice showing the step-through latency of more than 100 seconds in the group was defined as a ratio of memory for convenience's sake.
The step-through latency in Table 2 was the mean value for each treated group.

Structure (SMILES) | LD50 at 336 h [1] [mg/kg] | Step-through latency ([2]; 3 mg/kg oral) [s] | responders at 3 mg/kg ([2]; 3 mg/kg oral) [%] | Step-through latency ([2]; 1 mg/kg oral) [s] | responders at 1 mg/kg ([2]; 1 mg/kg oral) [%]
CCOC(=O)N1CCC(=Cc2cccc(Oc3ccccc3)c2)C1 [Compound 72] | ≥ 500 | – | – | – | –
COC1CC(=Cc2cccc(Oc3ccccc3)c2)C(=O)N1 (stereo not drawn) [Compound 55] | ≥ 500 | 80 | 25 | – | –
CCN1CCC(=Cc2cccc(Oc3ccc(C)cc3)c2)C1=O [Compound 15] | ≥ 500 | – | – | – | –
CCN1CCC(Cc2cccc(Oc3ccccc3)c2)C1=O (stereo not drawn) [Compound 82] | ≥ 500 | 102 | 38 | – | –
COCCN1CCC(=Cc2cccc(Oc3ccccc3)c2)C1=O [Compound 23] | ≥ 500 | 71 | 50 | – | –
O=C1C(=Cc2cccc(Oc3ccccc3)c2)CCN1c1ccccc1 [Compound 46] | ≥ 500 | 172 | 75 | – | –
O=C1NC(CO)CC1=Cc1cccc(Oc2ccccc2)c1 (stereo not drawn) [Compound 58] | ≥ 500 | – | – | 111 | 50
N#CCN1CCC(=Cc2cccc(Oc3ccccc3)c2)C1=O [Compound 37] | ≥ 500 | – | – | 110 | 50
CC(=O)CN1CCC(=Cc2cccc(Oc3ccccc3)c2)C1=O [Compound 45] | ≥ 500 | – | – | 169 | 50
NC(=O)N1CCC(=Cc2cccc(Oc3ccccc3)c2)C1 [Compound 73] | ≥ 500 | – | – | 119 | 50
S=C1NCCC1=Cc1cccc(Oc2ccccc2)c1 [Compound 86] | ≥ 500 | 70 | 25 | – | –
Nc1cc(C=C2CCNC2=O)ccc1Oc1ccccc1 [Compound 8] | ≥ 500 | 118 | 38 | – | –
O=C1C(=Cc2cccc(Oc3ccccc3)c2)CCN1CCO [Compound 25] | ≥ 500 | – | – | – | –
NC(=O)CCN1CCC(=Cc2cccc(Oc3ccccc3)c2)C1=O [Compound 33] | ≥ 500 | – | – | – | –
CCN1CC(C)C(=Cc2cccc(Oc3ccccc3)c2)C1=O (stereo not drawn) [Compound 61] | ≥ 500 | – | – | 90 | 50
O=C1C(=Cc2cccc(Oc3ccccc3)c2)CCN1c1ccc(F)cc1F [Compound 47] | ≥ 500 | – | – | – | –
O=C(C=Cc1ccccc1)N1CCC(=Cc2cccc(Oc3ccccc3)c2)C1=O [Compound 44] | ≥ 500 | 132 | 38 | – | –
CCC1C(=Cc2cccc(Oc3ccccc3)c2)CCN1CC (stereo not drawn) [Compound 78] | ≥ 500 | – | – | 132 | 75
O=C1C(=Cc2cccc(Oc3ccccc3)c2)CCN1CCOC1CCCCO1 (stereo not drawn) [Compound 24] | ≥ 500 | 109 | 38 | – | –
C=CN1CCC(=Cc2cccc(Oc3ccccc3)c2)C1=O [Compound 21] | ≥ 500 | – | – | – | –
CCN1C(=O)C(=Cc2cccc(Oc3ccccc3)c2)CC1C (stereo not drawn) [Compound 53] | ≥ 500 | 114 | 50 | – | –
COc1ccc(CN2CCC(=Cc3cccc(Oc4ccccc4)c3)C2=O)cc1 [Compound 49] | ≥ 500 | – | – | 102 | 50
O=C(O)CN1CCC(=Cc2cccc(Oc3ccccc3)c2)C1=O [Compound 29] | ≥ 500 | – | – | – | –
O=C1C(=Cc2cccc(Oc3ccccc3)c2)CCN1CCc1ccccc1 [Compound 51] | ≥ 500 | – | – | – | –

Structure (SMILES) | LD50 at 336 h [1] [mg/kg] | Step-through latency ([2]; 3 mg/kg oral) [s] | responders at 3 mg/kg ([2]; 3 mg/kg oral) [%] | Step-through latency ([2]; 1 mg/kg oral) [s] | responders at 1 mg/kg ([2]; 1 mg/kg oral) [%]
COc1ccc(Oc2cccc(C=C3CCNC3=O)c2)cc1 [Compound 5] | ≥ 500 | 134 | 50 | – | –
CN(C)CCNC(=O)CN1CCC(=Cc2cccc(Oc3ccccc3)c2)C1=O [Compound 36] | ≥ 500 | – | – | 163 | 75
CCN1C(=O)C(=Cc2cccc(Oc3ccccc3)c2)CC1O (stereo not drawn) [Compound 54] | ≥ 500 | – | – | – | –
O=C1NCCC1Cc1cccc(Oc2ccccc2)c1 (stereo not drawn) [Compound 81] | ≥ 500 | – | – | 70 | 25
CC1CC(=Cc2cccc(Oc3ccccc3)c2)C(=O)N1 (stereo not drawn) [Compound 52] | ≥ 500 | 120 | 50 | – | –
NC(=O)N1CCC(=Cc2cccc(Oc3ccccc3)c2)C1=O [Compound 30] | ≥ 500 | – | – | – | –
NCCN1CCC(=Cc2cccc(Oc3ccccc3)c2)C1=O [Compound 39] | ≥ 500 | – | – | – | –
CCOC1CC(=Cc2cccc(Oc3ccccc3)c2)C(=O)N1CC (stereo not drawn) [Compound 57] | ≥ 500 | 157 | 50 | – | –
Cc1ccc(Oc2cccc(C=C3CCNC3=O)c2)cc1 [Compound 4] | ≥ 500 | – | – | – | –
CN(C)C(=O)CN1CCC(=Cc2cccc(Oc3ccccc3)c2)C1=O [Compound 35] | ≥ 500 | – | – | 103 | 50
CCCCC1C(=Cc2cccc(Oc3ccccc3)c2)CCN1CC (stereo not drawn) [Compound 79] | ≥ 500 | – | – | 168 | 50
O=C1C(=Cc2cccc(Oc3ccccc3)c2)CCN1Cc1ccc(Cl)cc1 [Compound 50] | ≥ 500 | 100 | 50 | – | –
CCOC(=O)CN1CCC(=Cc2cccc(Oc3ccccc3)c2)C1=O [Compound 28] | ≥ 500 | 100 | 50 | – | –
CCCCCCN1CCC(=Cc2cccc(Oc3ccccc3)c2)C1=O [Compound 13] | ≥ 500 | 132 | 38 | – | –
O=C1NCCC1=Cc1cccc(Oc2ccc(Cl)cc2)c1 [Compound 6] | ≥ 500 | 101 | 31 | – | –
C1=Cc2cccc(OCC3CNCCO3)c2C1 (stereo not drawn) [Indeloxazine hydrochloride, reference compound] | – | 131 | 43 | – | –
CCN1CCC(=Cc2ccc(Oc3ccccc3)cc2)C1 [Compound 18] | ≥ 500 | – | – | – | –
CCC1NCCC1=Cc1cccc(Oc2ccccc2)c1 (stereo not drawn) [Compound 77] | ≥ 500 | – | – | – | –
CNC(=O)CN1CCC(=Cc2cccc(Oc3ccccc3)c2)C1=O [Compound 34] | ≥ 500 | – | – | – | –
O=C1C(=Cc2cccc(Oc3ccccc3)c2)CCN1CCCl [Compound 27] | ≥ 500 | – | – | – | –
C(=C1CCN(CCOC2CCCCO2)C1)c1cccc(Oc2ccccc2)c1 (stereo not drawn) [Compound 70] | ≥ 500 | – | – | – | –
O=C1C(=Cc2cccc(Oc3ccccc3)c2)CCN1C1CC1 [Compound 17] | ≥ 500 | – | – | – | –
CC1CNC(=O)C1=Cc1cccc(Oc2ccccc2)c1 (stereo not drawn) [Compound 60] | ≥ 500 | – | – | – | –
